Converted amounts (≈) assume the structure as drawn. Blank lines part the entries; values can stand above or below the compound they belong to.
Legend:
Solubility = format: physicochemical; settings: pH 1.2, simulated gastric fluid
A1 AR = target: T1, A1 AR (Homo sapiens, UniProt P30542); settings: binding Ki
T1 sequence (P30542 1-326): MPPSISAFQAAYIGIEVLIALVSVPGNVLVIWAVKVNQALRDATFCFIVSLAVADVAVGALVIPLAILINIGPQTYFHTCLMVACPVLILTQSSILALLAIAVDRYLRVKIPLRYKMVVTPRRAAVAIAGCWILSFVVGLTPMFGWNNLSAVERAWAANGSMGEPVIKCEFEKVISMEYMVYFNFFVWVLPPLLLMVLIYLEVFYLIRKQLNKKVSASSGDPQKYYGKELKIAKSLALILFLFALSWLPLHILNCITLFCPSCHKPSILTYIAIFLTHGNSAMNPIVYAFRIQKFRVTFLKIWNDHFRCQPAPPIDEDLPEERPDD

[1] = system: adult rat model of focal cerebral ischemia; settings: cited from earlier work
melanoma-bearing mice = settings: combined with anti-CTLA-4 mAb; cited from earlier work
lung metastasis model = settings: cited from earlier work

solubility (Solubility): 1990 µg/mL (≈ 6.45 mM)
Structure (SMILES): Cn1cc(-c2cnc(N)n3nc(-c4ccco4)nc23)ccc1=O [1a]

selectivity for A1 AR over the A2A AR (A1 AR): two-fold
Structure (SMILES): Cc1cnc(-c2nc3c(-c4ccc(=O)n(C)c4)cnc(N)n3n2)s1 [1d]

Structure (SMILES): Nc1nc2c(cnn2CCc2ccccc2)c2nc(-c3ccco3)nn12 [SCH58261]
ischemic brain damage [1]: reduced ischemic brain damage

Structure (SMILES): Nc1nc(NCCc2ccc(O)cc2)nc2nc(-c3ccco3)nn12 [ZM241385]
tumor growth in melanoma-bearing mice (melanoma-bearing mice): remarkable delay in tumor growth | tumor growth in a lung metastasis model (lung metastasis model): significantly inhibited tumor growth

Source: PMC8919384 (ACS Medicinal Chemistry Letters, 2022)
